{"source": "patent US12622916B2", "about": "“Use of H3K9me3 modulation for enhancing cognitive function” (THE REGENTS OF THE UNIVERSITY OF CALIFORNIA, priority 2015, dated 2026)", "key": {"[1]": {"system": "14 DIV hippocampal neurons", "test": "PSD-95 immunoreactivity and dendritic F-actin staining in hippocampal neurons", "format": "cell-based", "conditions": "20 nM, 24 hours", "excerpt": "Neurons were stained with antibodies against PSD-95 (red) and MAP2 (green). Scale bars: 10 μm, top panel; 2 μm, bottom panel.\nNote presence of numerous puncta marking presence of many spines. Top panel: Control, bottom panel: ETP treated neurons. Scale bar: 2 μm."}, "CREB": {"system": "CREB", "test": "CREB phosphorylation at Ser133 by Western blotting", "format": "cell-based", "excerpt": "FIG. 16 is an image illustrating ETP69 increased CREB phosphorylation at Ser133 measured by Western blotting. CREB is a transcription factor whose activation is involved in synaptic plasticity and memory formation."}, "young C57Bl/6J male mice": {"system": "young C57Bl/6J male mice", "test": "Object location memory (OLM) task in young mice", "format": "in vivo", "experimental": "Object Location Memory (OLM): Training and testing procedures were performed using a standard OLM protocol. Briefly, 22 aged mice and 18 young mice were handled for about 2-3 minutes per day for 5 days, followed by habituation to the experimental apparatus (white rectangular open field measuring 30×23×21.5 cm) for 5 min per day for 5 consecutive days before training.\n18 young mice were also tested in the same OLM paradigm as described above. To determine whether the drug impacted acquisition or consolidation mechanisms, the young mice were injected with the 10 mg/kg compound or vehicle (i.p, n=6/group), either just before or right after the acquisition trial, and tested 24 hours post-acquisition. FIG. 3 is a graphical representation of the results of OLM test showing the differences in exploration between mice treated with either vehicle, or 10 mg/kg of ETP69. […] Data are mean±SEM; n=7 or 8/group."}, "[2]": {"molecular_target": "DNA methyltransferase DNMT1 (Homo sapiens, UniProt P26358)", "sequence (P26358 whole entry)": "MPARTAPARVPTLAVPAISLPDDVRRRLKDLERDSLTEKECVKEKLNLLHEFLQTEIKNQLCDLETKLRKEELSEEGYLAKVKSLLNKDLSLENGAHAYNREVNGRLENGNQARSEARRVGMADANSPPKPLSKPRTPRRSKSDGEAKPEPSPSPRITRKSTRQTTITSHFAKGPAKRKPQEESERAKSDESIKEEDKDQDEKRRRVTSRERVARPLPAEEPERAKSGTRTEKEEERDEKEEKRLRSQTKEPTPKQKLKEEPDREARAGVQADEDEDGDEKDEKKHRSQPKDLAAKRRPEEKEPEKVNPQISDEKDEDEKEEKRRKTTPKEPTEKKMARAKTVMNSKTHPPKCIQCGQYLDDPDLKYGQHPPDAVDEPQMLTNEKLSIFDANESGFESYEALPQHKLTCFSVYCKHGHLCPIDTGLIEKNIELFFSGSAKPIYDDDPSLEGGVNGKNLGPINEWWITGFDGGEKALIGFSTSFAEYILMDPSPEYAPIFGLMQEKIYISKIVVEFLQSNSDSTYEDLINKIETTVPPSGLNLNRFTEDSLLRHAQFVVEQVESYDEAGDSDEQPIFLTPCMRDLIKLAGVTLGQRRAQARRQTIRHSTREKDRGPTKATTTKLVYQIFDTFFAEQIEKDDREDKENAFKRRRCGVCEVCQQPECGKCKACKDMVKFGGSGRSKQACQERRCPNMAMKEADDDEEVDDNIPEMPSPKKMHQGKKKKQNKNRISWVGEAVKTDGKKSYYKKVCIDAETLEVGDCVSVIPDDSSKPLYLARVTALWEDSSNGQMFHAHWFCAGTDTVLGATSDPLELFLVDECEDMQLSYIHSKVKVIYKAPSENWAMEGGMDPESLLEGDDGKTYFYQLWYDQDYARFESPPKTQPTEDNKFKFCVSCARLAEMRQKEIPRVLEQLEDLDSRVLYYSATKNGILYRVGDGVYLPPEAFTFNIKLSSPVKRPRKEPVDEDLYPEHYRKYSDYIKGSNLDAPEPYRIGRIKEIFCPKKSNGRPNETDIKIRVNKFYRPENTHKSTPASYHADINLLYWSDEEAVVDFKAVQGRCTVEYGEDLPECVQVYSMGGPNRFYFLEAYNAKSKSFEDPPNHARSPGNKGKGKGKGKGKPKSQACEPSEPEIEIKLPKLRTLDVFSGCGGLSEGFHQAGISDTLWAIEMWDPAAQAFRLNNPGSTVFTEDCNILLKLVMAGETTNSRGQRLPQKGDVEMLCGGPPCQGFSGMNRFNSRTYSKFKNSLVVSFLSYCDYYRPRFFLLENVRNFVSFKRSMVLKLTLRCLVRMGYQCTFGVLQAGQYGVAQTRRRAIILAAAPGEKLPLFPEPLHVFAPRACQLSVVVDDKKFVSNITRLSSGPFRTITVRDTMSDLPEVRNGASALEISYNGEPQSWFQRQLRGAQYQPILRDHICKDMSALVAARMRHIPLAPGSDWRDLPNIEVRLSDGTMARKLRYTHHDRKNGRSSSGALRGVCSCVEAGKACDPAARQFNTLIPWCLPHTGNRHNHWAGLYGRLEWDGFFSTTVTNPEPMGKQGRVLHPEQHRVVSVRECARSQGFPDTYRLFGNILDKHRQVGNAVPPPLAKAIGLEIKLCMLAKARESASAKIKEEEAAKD", "test": "Inhibitory activity towards DNA methyltransferase DNMT1", "format": "biochemical"}, "CA1 pyramidal neurons": {"system": "CA1 pyramidal neurons", "test": "Spine counts (Golgi staining) on CA1 pyramidal neurons of aged mice", "format": "in vivo", "conditions": "10 mg/kg i.p., 24 hours", "experimental": "Spine counts: In another series of experiments 10 aged mice (20-22 months) were injected with ETP69 (10 mg/kg; i.p) or vehicle (i.p) and 24 hours later the animals were euthanized and the brains were separated into two hemispheres. Right hemisphere was used for Golgi staining and the left was processed for flow synaptometry. Staining was conducted according to manufacturer's information (Golgi-Cox, Bioenna).\nSpecifically, we counted and classified spines on CA1 pyramidal neurons. Dendrite segments from neurons in CA1 of the hippocampus were imaged by confocal microscopy and a blinded investigator counted and classified dendritic spines according to their morphology. Spines were manually counted and classified as thin, mushroom, or stubby, according to previously described criteria.\nFor each animal, at least 3 pyramidal neurons and 200 μm of total dendrite length and 250-500 spines were analyzed (n=5 animals per group). All of the neurons were chosen from the dorsal part of the CA1 hippocampal region (according with it essential role in spatial memory) and were completely stained along basal and apical dendrites. FIG. 10 presents representative images showing effect of ETP69 treatment on spines in the CA1 of the hippocampus."}, "aged mice [3]": {"system": "aged mice", "test": "Unsupervised learning task (USL) in aged mice", "format": "in vivo", "conditions": "10 mg/kg i.p.", "experimental": "Unsupervised learning task: A new group of 12 aged animals were used for the unsupervised learning task. Procedures were adapted from published work. The unsupervised learning (USL) behavioral apparatus consisted of a large open field divided by walls into 4 chambers, all accessible by small entrances in each dividing wall. The animals can also access a smaller attached enclosed dark compartment by an open entrance. After 5 days of handling, animals were injected with ETP69 (10 mg/kg, i.p.) or vehicle and placed in the video-monitored USL box for thirty minutes, and the returned to the home cage. 24 hours later the animals were placed in the USL box again and euthanized immediately after. Their brains were rapidly removed, hippocampus dissected rapidly, frozen on dry ice, and stored at −80° C. until further processing\nTo evaluate if H3K9me3 is implicated in measures of spatial learning and to evaluate molecular endpoints, a second series of experiments was conducted with the USL task being the behavioral endpoint. The USL task is a simple behavioral paradigm in which mice are allowed to freely explore a four-compartment environment for a specified period of time. Reduction in overall activity and exploration of the test arena over this time is considered a measure of learning and short-term memory. […]"}, "aged mice [4]": {"system": "aged mice", "test": "Contextual fear conditioning in aged mice", "format": "in vivo", "conditions": "10 mg/kg i.p., versus aged controls", "experimental": "Fear conditioning: 14 aged (18-20 months) male mice were placed in the fear-conditioning chamber were allowed to explore for 2 minutes before receiving one electric foot shocks (2 seconds, 0.2 mA). Animals were returned to the home cage 2 minutes after the foot shock."}, "bdnf promoters": {"system": "bdnf promoters", "test": "ChIP for H3K9me3 at BDNF promoter regions in hippocampus", "format": "in vivo", "conditions": "aged mice, ETP69 versus controls", "experimental": "ChIP for BDNF promoter regions: After cross-linking with 1% formaldehyde, chromatin was sheared to fragments of 200-500 bp. Immunoprecipitation was realized overnight at 4° C. with an antibody directed against histone H3K9me3 (H3K9me3; Millipore). After washes, elution from beads, and reversal of the cross-link, immunoprecipitated DNA was purified and analyzed in triplicate by qRT-PCR with an internal standard curve prepared from pooled input samples. Each sample was normalized with the respective input value. Primers for bdnf promoters for exon I, IV, and VI correspond to each unique exon sequence. RT-qPCR primer sets were designed using the Roche Universal Probe Library Assay Design Center and obtained from Integrated DNA Technologies (Coralville, IA). RT-qPCR reactions were run in a Stratagene MX3005P thermocycler at 95° C. for 3 min, followed by 45 cycles of 95° C. for 10 s, and 58° C. for 15 s. Each RT-qPCR run included all samples run in triplicate and a standard curve. Data were analyzed by the 2^−ΔΔct method and expressed as fold change over control after normalizing with input samples, as described previously."}}, "note": "Entries after “also recorded” stand apart in the source; their conditions may differ.", "data": [{"smiles": "CN1C(=O)[C@@]23C[C@](C)(C#N)[C@H](c4ccc5c(c4)OCO5)N2C(=O)[C@]1(C)SS3", "note": "(racemic) [ETP69, Rac-(3S,6S,7S,8aS)-6-(benzo[d][1,3]dioxol-5-yl)-2,3,7-trimethyl-1,4-dioxohexahydro-6H-3,8a-epidithiopyrrolo[1,2-a]pyrazine-7-carbonitrile]", "values": [{"measurement": "PSD-95 immunoreactivity", "setting": "[1]", "result": "increased PSD-95 immunoreactivity"}, {"measurement": "dendritic F-actin staining", "setting": "[1]", "result": "increased dendritic F-actin staining"}, {"measurement": "phosphorylation of CREB at Ser133", "setting": "CREB", "result": "increased phosphorylation"}, {"measurement": "OLM acquisition phase: group differences", "setting": "young C57Bl/6J male mice; 10 mg/kg i.p.", "result": "no significant group differences"}, {"measurement": "OLM performance, pre-trial administration", "setting": "young C57Bl/6J male mice; 10 mg/kg i.p. 30 minutes prior to acquisition phase", "result": "did not show any statistical differences"}, {"measurement": "OLM performance, post-trial administration", "setting": "young C57Bl/6J male mice; 10 mg/kg i.p. immediately after acquisition", "result": "did not show any statistical differences"}, {"measurement": "inhibitory activity towards DNA methyltransferase DNMT1", "setting": "[2]", "result": "no inhibitory activity"}, {"measurement": "density of stubby spines", "setting": "CA1 pyramidal neurons; CA1", "result": "significantly higher density"}, {"measurement": "density of thin spines", "setting": "CA1 pyramidal neurons; CA1", "result": "significantly higher density"}, {"measurement": "numbers of mushroom spines/length of dendrite", "setting": "CA1 pyramidal neurons; CA1", "result": "no difference"}, {"measurement": "increase in total number of spines per length of dendrite compared to controls", "setting": "CA1 pyramidal neurons; CA1 hippocampus", "result": 45, "unit": "%"}, {"measurement": "USL total distance travelled over 30 minutes, Day 1 versus Day 2", "setting": "aged mice [3]", "result": "significant decrease in total distance travelled"}, {"measurement": "USL habituation/exploration (distance travelled), Day 2 versus Day 1", "setting": "aged mice [3]; 24 hours after treatment", "result": "significant decrease in habituation/exploration"}, {"measurement": "contextual fear conditioning performance (freezing)", "setting": "aged mice [4]", "result": "improved performance"}, {"measurement": "H3K9me3 at bdnf promoter I (Exon 1)", "setting": "bdnf promoters", "result": "significant effect of treatment; also recorded: significantly lower"}]}]}
